From paper PMC7000521, “Hazard Characterization of Synthetic Cathinones Using Viability, Monoamine Reuptake, and Neuronal Activity Assays” (Frontiers in Neuroscience, 2020)

Assays:
hDAT = target: T1, hDAT (Homo sapiens, UniProt Q01959); assay: Monoamine uptake assay (fluorescent substrate), hDAT; assay type: cell-based
T1 construct: expressed in transfected cells
Description: Human embryonic kidney (HEK) 293 cells stably expressing human DAT, NET, or SERT (kindly provided by Dr. Hoener from F. Hoffmann-La Roche Ltd., Basel, Switzerland) were cultured as described in [Zwartsen et al. (2017)].
Uptake activity of hNET, hDAT, and hSERT was measured using the Neurotransmitter Transporter Uptake Assay Kit from MDS Analytical Technologies (Sunnyvale, CA, United States) as described in detail previously ([Zwartsen et al., 2017]). The kit contained a mixture consisting of a fluorescent substrate, which resembles the biogenic amine neurotransmitters, and a masking dye that extinguishes extracellular fluorescence. Uptake of the fluorescent substrate, a measure of neurotransmitter transporter function, increases intracellular fluorescence, while extracellular fluorescence is blocked by the masking dye ([Jorgensen et al., 2008]). The mixture was dissolved in Hank’s Balanced Salt Solution (1×) (HBSS) with 20 mM HEPES, and kept up to 1 week at −20°C.
On day 0, HEK 293 cells were seeded (60,000 cells/well) in clear-bottom black-walled 96-well plates coated with poly-L-lysine (PLL, 50 mg/L). On day 1, cells were pre-incubated with the fluorescent substrate mixture (95 μL/well, comprising of the fluorescent substrate and the extracellular masking dye, dissolved in HBSS) for 12 min (t = −12 to t = 0). During incubation, intracellular fluorescence was measured every 3 min. […] Stock solutions and dilutions were freshly prepared in HBSS (1×) at the day of usage. Effects of 3-MMC, 4-MMC, 4-MEC, methylone, pentedrone, MDPV, 3-MMCinternet, and 4-MECinternet were measured at final concentrations of 0.03–300/1000 μM. Fluorescence was measured with a microplate reader (Tecan Infinite M200 microplate; Tecan Trading Männedorf, Switzerland) at 37°C at 430/515 nm excitation/emission wavelength. For more experimental detail see [Zwartsen et al. (2017)].
Data from the monoamine uptake assay were analyzed as described by [Zwartsen et al. (2017)], with minor modifications. Data for α-PVP were reanalyzed from [Zwartsen et al. (2017)]. In short, the fluorescence of each well was background corrected and uptake was determined per well by calculating the change in fluorescence (ΔFU) at 12 min after drug exposure (t = 12) compared to the fluorescence at the start of exposure (t = 0), as a percentage of the fluorescence at the start of exposure (%ΔFU = ((FUt = 12−FUt = 0)/FUt = 0)∗100%; see [Zwartsen et al., 2017]). Plate-matched control values for each compound (e.g., methylone) above or below two times the standard deviation of the average normalized control value were considered outliers and were removed from analysis (4.8%). Thereafter, uptake in drug-exposed wells was expressed as a percentage of control wells on the same plate and all uptake values were scaled between 0 and 100%. Outliers (>mean ± 2×SD) in exposed groups were removed (2.7%) and uptake (% compared to control) was expressed as mean ± SEM of nwells from Nplates.
Concentration–response curves were made for transporter, MEA, and cell viability assays. To calculate IC50 values, a four-parameter logistic curve with a variable slope was used (Y = Bottom + (Top−Bottom)/(1 + 10∧((LogIC50 − X) ^∗ HillSlo pe))) (GraphPad Prism, version 7.04). When applicable, significance between concentrations and controls (for MEA) and different IC50 values [between different transporters (DAT/NET/SERT), MEA parameters (MSR/MBR/MNBR), exposure settings (acute/prolonged/recovery), and drug grade (pharmaceutical/internet)] were determined using unpaired t-tests (two values) or one-way ANOVA’s followed by a post hoc Dunnet’s test (>2 values). All statistical tests were performed using GraphPad Prism. For recovery of neuronal activity, IC50 values and 95% confidence intervals could not always be determined and are reported as higher than the highest concentration tested (e.g., >1000 μM). […]

[1] = Brain partitioning factor (BPF); details: brain concentration divided by blood/serum/plasma concentration from human post mortem reports or animal studies (rat/mice)
Text: (§1) To correlate reported effect concentrations to expected concentrations in the human brain during recreational use a brain partitioning factor (BPF; […]) was applied, as actual human brain concentrations following recreational drug use are unknown. Expected concentrations in the human brain were estimated by multiplying recreational human blood/serum/plasma concentrations with the BPF. Human recreational blood, serum, or plasma levels were obtained from literature (driving under the influence or accidental non-fatal intoxications). The BPF was determined for each drug by dividing the brain concentration by the blood/serum/plasma concentration found in human post mortem reports, or animal studies (rat/mice) when human data were insufficient.

[2] = Estimated human brain concentrations and comparison with IC50 values; details: recreational human blood/serum/plasma concentration multiplied with BPF
Text: as §1
To identify the relevance of effects and potentially harmful drugs, effect concentrations (IC50 values) were related to the estimated human brain concentration during recreational use [(brain), Table 2]. By comparing these concentrations, the most relevant neurotoxic mechanisms of cathinones can be identified. […] Only 4-MEC and MDPV inhibited neuronal activity during acute exposure at concentrations within (MDPV) or close to (4-MEC) the estimated brain concentration.

[3] = recreational use (driving under the influence or accidental non-fatal intoxications); ref literature; cited from earlier work

T1 sequence (Q01959 whole entry): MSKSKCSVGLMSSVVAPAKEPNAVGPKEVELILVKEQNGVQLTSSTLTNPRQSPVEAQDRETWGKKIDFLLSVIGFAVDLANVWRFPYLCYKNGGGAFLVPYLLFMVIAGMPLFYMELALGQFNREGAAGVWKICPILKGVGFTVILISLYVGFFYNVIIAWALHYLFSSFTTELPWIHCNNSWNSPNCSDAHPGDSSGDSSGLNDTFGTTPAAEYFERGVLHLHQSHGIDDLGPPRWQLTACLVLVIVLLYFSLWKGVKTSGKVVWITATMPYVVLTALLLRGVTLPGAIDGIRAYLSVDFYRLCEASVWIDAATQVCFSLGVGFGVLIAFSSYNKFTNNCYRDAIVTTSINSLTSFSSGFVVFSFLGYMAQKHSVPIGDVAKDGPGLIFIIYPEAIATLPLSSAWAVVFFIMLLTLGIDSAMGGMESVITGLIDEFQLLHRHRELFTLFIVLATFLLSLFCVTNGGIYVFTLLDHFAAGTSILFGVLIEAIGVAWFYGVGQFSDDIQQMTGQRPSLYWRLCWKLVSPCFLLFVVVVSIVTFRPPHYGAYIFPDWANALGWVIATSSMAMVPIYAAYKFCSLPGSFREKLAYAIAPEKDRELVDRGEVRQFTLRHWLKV

Structure (SMILES) | IC50 (hDAT) | Brain partitioning factor (BPF) [1] | Estimated human (brain) concentration [2] | Human (serum/blood/plasma) concentration [3]
CCCC(NC)C(=O)c1ccccc1 (stereo not shown) [Pentedrone, 2-(methylamino)-1-phenyl pentan-1-one] | 400 nM | 1.6^8 | 0.06 to 3.0 µM | 0.04–1.9^a^,d,I μM
CCCC(C(=O)c1ccc2c(c1)OCO2)N1CCCC1 (stereo not shown) [MDPV, 1-(1,3-benzodioxol-5-yl)-2-pyrro lidin-1-ylpentan-1-one] | 70 nM | 0.8–4.4^4,11,12 | 0.02 to 30 µM | 0.02–6.9^d,L,M,n μM
CNC(C)C(=O)c1ccc(C)cc1 (stereo not shown) [4-MMC, 2-(methylamino)-1-(4-methylphenyl) propan-1-one] | 1400 nM | 0.7–6.2^1,^–2,^3 | 0.04 to 37 µM | 0.05–6.0^a^,d,E,f μM
CNC(C)C(=O)c1cccc(C)c1 (stereo not shown) [3-MMC, 2-(methylamino)-1-(3-methylphenyl) propan-1-one] | 2500 nM | – | 0.005 to 9.0 µM | 0.005–9.0^A,b,^c μM
CCNC(C)C(=O)c1ccc(C)cc1 (stereo not shown) [4-MEC, 2-(ethylamino)-1-(4-methylphenyl) propan-1-one] | 1600 nM | 1.5–6.2^4 | 0.2 to 29 µM | 0.1–4.7^a^,d μM
